Source: patent US20210106700A1, “Fractionated Dosing of a Phospholipid Ether Analog for the Treatment of Cancer” (Cellectar Biosciences, Inc., priority 2018, published 2021)

Tested on: OPM-2 cell line (human multiple myeloma)
Assay: OPM-2 multiple myeloma subcutaneous xenograft in CB17 SCID mice (tumor volume, doubling time, survival, body weight)
Format: in vivo, mouse
Conditions: fractionated dosing
Protocol: The OPM-2 cell line (human multiple myeloma) was purchased from American Type Culture Collection (ATCC, Rockville, Md.) and maintained in McCoy's 5a media supplemented with 10% fetal bovine serum. Female CB17 SCID mice approximately 5-7 weeks of age were injected subcutaneously with 1×10^7 viable cells (in ˜100 μL Dulbecco's PBS) into the right flank. The study was initiated when tumor size had reached a pre-determined size (approximately 150-200 mm3). The mice were given potassium iodide at a concentration of 0.1% in their drinking water to block possible free iodide in the drug formulation three days prior to injection and continuing through two weeks post-injection. Mice were randomly assigned to dose groups. Tumor volume was measured with a caliper during the course of the study. Tumor doubling time calculation4 TDT=D×log(2)/log(1+r/100), where D equals days between measurements and r=rate of growth; r/100=(V2−V1/V1)×100%. Statistical analysis: 1-way Anova, Dunnett's test.

In the case of “^131I-labeled 18-(p-iodo-phenyl)octadecyl phosphocholine [CLR 131]”, the “Tumor volume vs control” value (after day 26) is reported as “statistically significant reduction” and the “Tumor volume vs all other treatments” value (at day 52, p<0.05) is reported as “statistically significant reduction”.
